Consider 2 compounds from patent US20220370326A1, “TOPICAL COMPOSITIONS AND METHODS OF USING SAME AGAINST MITOCHONDRIAL FRAGMENTATION” (Conopco, Inc., d/b/a UNILEVER, priority 2019, published 2022).

This test concerns human keratinocytes. The test is described as follows: Mitochondrial fragmentation in keratinocytes - UV study (TPEF imaging of NADH, Fourier PSD analysis). Format: cell-based. To be noted: B3 10 mM, SAMe 500 uM; for Effect on mitochondrial fragmentation in Non UV-exposed keratinocytes (in words) / Effect on UV-induced mitochondrial fragmentation (in words): significance P </= 0.05; for Mitochondrial Fragmentation, (+) UV (4 days) / Mitochondrial Fragmentation, (−) UV (3 days): human keratinocytes, higher value = less protection; for Mitochondrial Fragmentation, (+) UV (4 days): 4 days of daily UV exposure (4 J/cm^2 UVA+UVB, 14 min); for Mitochondrial Fragmentation, (−) UV (3 days): not UV-exposed, 3 days of treatment; for Effect on UV-induced mitochondrial fragmentation (in words): keratinocytes, UV exposure for 4 days. Here is the method:
Test compounds (B3 and SAMe) were purchased from Sigma (St. Loius, MO). Cell culture growth media (Epilife media with calcium (Cat#MEPI500CA) and Epilife media supplement HKGS 100X (Cat#S-001-5)) was purchased from Thermofisher (Waltham, Mass.). Cryopreserved human keratinocytes cells (˜1×10^6 cells) were plated on 12-well glass bottom plates at a confluence of ˜15%. The cells were suspended in primary keratinocyte growth media (Epilife media with calcium) and incubated @ 37° C. for 1d (Day 0). At Day 1, cells began treatment with supplemented primary keratinocyte growth media (Epilife media with calcium supplemented with HKGS 100X; […]) without test compound (Control sample) or containing test compounds B3 (10 mM), SAMe (500 μM) or B3 (10 mM)+SAMe (500 uM). Cell treatment (25m1 media with or without test compounds as above) continued daily for 2 additional days (Days 2 and 3). On Day 4, cells were subjected to UV treatment by replacing media with PBS, exposing cells to UV light (4 J/cm^2 of UVA+UVB) for 14 min and feeding cells with media with or without corresponding test compounds as defined above. UV treatments continued daily for 3 additional days (Days 5, 6 and 7). Image acquisition and analysis on all wells to assess mitochondrial fragmentation was conducted on Day 1, 3, 5 and 8.
For two-photon excited fluorescence (TPEF) imaging, cell cultures were placed in microscope-compatible micro-incubator system, which maintained 37° C. within a humidified environment throughout the imaging session. HEPES buffering agent (Sigma) was added to cell cultures before imaging, which maintained the pH of cell cultures throughout the imaging session. Images were obtained using a Leica TCS SP8 confocal microscope equipped with a tunable (680-1300 nm) titanium-sapphire laser (InSight Deep See; Spectra Physics; Mountain View, Calif.). Images (1024×1024 pixels; 386×386 μm) were acquired using water-immersion 25x objective (NA 0.95; 2.4 mm working distance), with simultaneous collection by two non-descanned photomultiplier tube (PMT) detectors using a filter cube containing filters from Chroma (Bellows Falls, VT), including a 700 nm short pass filter (ET700SP-2P) and a 495 nm dichroic mirror (495DCXR). To isolate NADH fluorescence, a 460(±20) nm emission filter (Chroma, ET460/40M-2P), corresponding to the NADH emission peak, was placed before one of the non-descanned detectors. NADH fluorescence images were acquired from this 460 nm channel using 755 nm excitation. FAD fluorescence was isolated using a 525(±25) nm emission filter (Chroma, ET525/50M-2P) for the other non-descanned detector and 860 nm excitation. The two-photon action cross section of NADH decreases by several orders of magnitude between 755 nm and 860 nm excitation, enabling an efficient isolation of FAD at longer wavelengths. The fluorescence lifetime images (512×512 pixels; 386×386 μm) corresponding to NADH were acquired under the same excitation and emission settings, using SymPho software. PMT gain was adjusted for each image to maximize contrast while preventing a saturated pixel intensity value. The PMT gain and laser power were recorded for each image and used to normalize fluorescence intensity.
To assess mitochondrial fragmentation, a previously-established Fourier transform technique was used to obtain power spectral density (PSD) curves from each image. […]

Marks after values point to notes of the source that are not given here.

Regarding `NC(=O)c1cccnc1` [B3, Nicotinamide], the “Effect on mitochondrial fragmentation in Non UV-exposed keratinocytes (in words)” value was “does not significantly reduce mitochondrial fragmentation”; the “Mitochondrial Fragmentation, (+) UV (4 days)” value is reported as 1.34 ^d; the “Mitochondrial Fragmentation, (−) UV (3 days)” value is on record as 1.18; the “Effect on UV-induced mitochondrial fragmentation (in words)” value is given as “effective at reducing this UV-induced effect down to control levels”.
`C[S+](CC[C@H](N)C(=O)[O-])C[C@H]1O[C@@H](n2cnc3c(N)ncnc32)[C@H](O)[C@@H]1O` (stereo partly drawn) [SAMe, S-adenosyl-L-methionine]: the “Effect on mitochondrial fragmentation in Non UV-exposed keratinocytes (in words)” value was “does not significantly reduce mitochondrial fragmentation”; the “Mitochondrial Fragmentation, (+) UV (4 days)” value was 1.58 ^c,e; the “Mitochondrial Fragmentation, (−) UV (3 days)” value was 1.30; the “Effect on UV-induced mitochondrial fragmentation (in words)” value is on record as “increases mitochondrial fragmentation beyond UV-exposed levels”.
